Assay: Appearance of acid susceptible proton pump inhibitor powders before and after gamma sterilization
Type: physicochemical
Conditions: for Color change after radiation: gamma sterilization 25 kGy; for Appearance After sterilization (25 kGy) / Appearance Before sterilization: powder; for Appearance After sterilization (25 kGy): after gamma sterilization 25 kGy; for Appearance Before sterilization: before gamma sterilization
Procedure: In addition to esomeprazole sodium exemplified in Example 1, three other acid susceptible proton pump inhibitors, omeprazole sodium, pantoprazole sodium and lansoprazole, were gamma sterilized with a sterilizing dose of 25 kGy. The appearance of the powder was determined before and after gamma sterilization.

Color change after radiation | Appearance After sterilization (25 kGy) | Appearance Before sterilization | Structure (SMILES)
no color change |  |  | Cc1c(OCC(F)(F)F)ccnc1C[S+]([O-])c1nc2ccccc2[nH]1 (stereo not shown) [Lansoprazole]
some small (very minor) color changes | Very slightly yellow | White to off-white | COc1ccc2[n-]c([S+]([O-])Cc3ncc(C)c(OC)c3C)nc2c1.[Na+] (stereo not shown) [Omeprazole sodium]
some small (very minor) color changes | Very slightly yellow | White to off-white | COc1ccnc(C[S+]([O-])c2nc3ccc(OC(F)F)cc3[nH]2)c1OC (stereo not shown) [Pantoprazole sodium]

From patent publication US20090111856A1, “Parenteral Formulation Comprising Proton Pump Inhibitor Sterilized in its Final Container by Ionizing Radiation” (priority 2006, published 2009)
